# Laboratory results as given in US20250125004A1, “SYSTEMS AND METHODS FOR POST-TRANSLATIONAL MODIFICATION-INSPIRED DRUG DESIGN AND SCREENING” (Ensem Therapeutics, Inc., priority 2021, published 2025).
# Assays:
# [1] = biological target: T1, c-Src (Homo sapiens, UniProt P12931); test: Homogeneous time-resolved fluorescence (HTRF) assay, KinEASE-TK kit; type: biochemical; settings: 120 min incubation, n=3 for DC-Srci-6668, read-out: IC50, inhibition of c-Src catalytic activity
# Procedure: Based on this, covalent docking was performed against an in-house compound library, consisting of 720 compounds with reactive chemical groups. After score ranking and cluster analysis (FIG. 6B), 16 compounds were selected and purchased from ChemDiv (San Diego, CA, USA) for subsequent biochemical evaluations. Although IC50 values are time-dependent for covalent inhibitor and cannot be used to fully characterize the true binding affinity, they are also recognized as an indicator for preliminary evaluating the biological activity of covalent compounds. The homogeneous time resolved fluorescence (HTRF) assay was then conducted to determine the compound inhibitory activity, using the HTRF KinEASE-TK kit (Cisbio, Bedford, MA, USA). […] The cells were infected with baculovirus at 27° C. for 48-72 hours before collection. Cells were lysed in buffer containing 20 mM Hepes pH=7.4, 150 mM NaCl, 1 mM DTT, 1× protease inhibitor cocktail (Roche) and 1 mM PMSF. […] The ability of compounds to inhibit the phosphorylation of a peptide substrate by c-Src kinase was evaluated by homogeneous time-resolved fluorescence (HTRF) using KinEASE-TK kit (Cisbio, Bedford, MA, USA). […] Finally, fluorescence was measured at 615 nm and 665 nm using EnVision reader (PerkinElmer). The results were calculated as follows: ratio=OD665/OD615 and the IC50 values were analyzed in Graphpad Prism 8.0.
# [2] = biological target: c-Src Y419 autophosphorylation (His-tag Src-k protein) (Homo sapiens, UniProt P12931); test: Amplified Luminescent Proximity Homogeneous Assay (ALPHA), auto-phosphorylation of c-Src Y419; type: biochemical; settings: 90 min incubation, n=3, read-out: IC50, inhibition of autophosphorylation of c-Src Y419
# Sequence of c-Src Y419 autophosphorylation (His-tag Src-k protein) (P12931 254-536): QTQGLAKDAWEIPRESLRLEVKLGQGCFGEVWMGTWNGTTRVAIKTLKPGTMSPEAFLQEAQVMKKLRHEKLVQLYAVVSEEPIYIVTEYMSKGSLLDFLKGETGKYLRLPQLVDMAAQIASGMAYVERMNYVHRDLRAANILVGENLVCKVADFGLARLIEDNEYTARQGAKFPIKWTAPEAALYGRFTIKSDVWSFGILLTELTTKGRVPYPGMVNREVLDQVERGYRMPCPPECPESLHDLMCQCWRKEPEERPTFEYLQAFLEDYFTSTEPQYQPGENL
# Procedure: Human c-Src kinase domain (Src-k, including WT and C280S, 254-536) with a TEV protease cleavable N-terminal 6×-His tag was cloned into pET28a vector and co-expressed with full length YopH phosphatase cloned to pCDFDuet-1 vector in Escherichia coli BL21 (DE3) cells. Cells were cultured in LB medium at 37° C. and induced with 0.4 mM IPTG at 18° C. for 16 hours. Proteins were purified using HisTrap FF column (GE Healthcare) in buffer containing 50 mM Hepes pH=8.0, 500 mM NaCl, 5% glycerol and imidazole (25 mM for loading, 150 mM for elution). After TEV enzyme cleavage, proteins were loaded to Hitrap Q FF (GE Healthcare) in buffer containing 20 mM Hepes pH=8.0, 5% glycerol, 1 mM DTT (QA) and eluted with a linear gradient of 10-30% buffer QB (buffer QA plus 1M NaCl). Then proteins were further purified by Superdex75™ 10/300 GL column (GE Healthcare) and change the buffer to 20 mM Hepes pH=7.4, 150 mM NaCl, 1 mM DTT. The ability of compounds to inhibit the auto-phosphorylation of c-Src Y419 was determined by Amplified Luminescent Proximity Homogeneous Assay (ALPHA). ALPHA assay was carried out in assay buffer containing 20 mM Hepes, pH=7.4, 0.1% Triton X-100, 1 mM DTT, 0.1% bovine serum albumin (w/v)). […] Finally, the signals were measured in ALPHA protocol using EnVision reader and the IC50 values analyzed in Graphpad Prism 8.0.
# [3] = biological target: c-Src (Src-k protein) (Homo sapiens, UniProt P12931); test: Protein thermal shift (PTS) assay; type: binding
# Sequence of c-Src (Src-k protein) (P12931 254-536): as above
# Procedure: Human c-Src kinase domain (Src-k, including WT and C280S, 254-536) with a TEV protease cleavable N-terminal 6×-His tag was cloned into pET28a vector and co-expressed with full length YopH phosphatase cloned to pCDFDuet-1 vector in Escherichia coli BL21 (DE3) cells. Cells were cultured in LB medium at 37° C. and induced with 0.4 mM IPTG at 18° C. for 16 hours. Proteins were purified using HisTrap FF column (GE Healthcare) in buffer containing 50 mM Hepes pH=8.0, 500 mM NaCl, 5% glycerol and imidazole (25 mM for loading, 150 mM for elution). After TEV enzyme cleavage, proteins were loaded to Hitrap Q FF (GE Healthcare) in buffer containing 20 mM Hepes pH=8.0, 5% glycerol, 1 mM DTT (QA) and eluted with a linear gradient of 10-30% buffer QB (buffer QA plus 1M NaCl). Then proteins were further purified by Superdex75TM 10/300 GL column (GE Healthcare) and change the buffer to 20 mM Hepes pH=7.4, 150 mM NaCl, 1 mM DTT. Protein thermal shift (PTS) assays were performed on a QuantStudioTM 6 Flex Real-time PCR system (Applied Biosystems). […] Src-k protein, 5×SYPRO® orange (Molecular Probes) and different concentrations of compounds were mixed in 20 μL final buffer and added to 96-well plates (DN Biotech). According to the standard protocol, the reaction system was heated from 25° C. to 95° C. within 25 minutes, and the fluorescence signal was monitored in real time. Protein […] ShiftTM Software Version 1.2 (Life Technologies) was used to determine the Tm value and Graphpad Prism 8.0 was used to draw the curves. The Y419-phosphorylated protein used was obtained by incubating Src-k protein with 5 mM MgCl2 and 10 mM ATP overnight, and then desalting it into final buffer.
# [4] = biological target: T1, c-Src; test: Intact protein mass by HPLC/MS, covalent binding; settings: about 20 μM c-Src, 100 μM compound, 4° C., 8 hours; expected 316.34 Da for a single covalent adduct
# Procedure: c-Src protein was diluted to approximately 20 μM in final buffer and incubated with compound at a final concentration of 100 μM or same volume of DMSO at 4° C. for 8 hours. Then, the protein samples were diluted into aqueous solution containing 0.1% formic acid (about 1 mg/mL), and 2 μg of the target protein samples were took for LC/MS analysis. Intact protein high-resolution mass spectrometry was performed using Ultimate 3000 LC liquid chromatograph and LTQ Orbitrap mass spectrometer equipped with HESI ion source (Thermo Fisher, CA). BioPharma Finder software (version 2.0, Thermal Fischer, California) was used to process the raw LC-MS data, and the […] deconvolution algorithm was used to obtain the intact protein masses.
# T1 sequence (P12931 86-536): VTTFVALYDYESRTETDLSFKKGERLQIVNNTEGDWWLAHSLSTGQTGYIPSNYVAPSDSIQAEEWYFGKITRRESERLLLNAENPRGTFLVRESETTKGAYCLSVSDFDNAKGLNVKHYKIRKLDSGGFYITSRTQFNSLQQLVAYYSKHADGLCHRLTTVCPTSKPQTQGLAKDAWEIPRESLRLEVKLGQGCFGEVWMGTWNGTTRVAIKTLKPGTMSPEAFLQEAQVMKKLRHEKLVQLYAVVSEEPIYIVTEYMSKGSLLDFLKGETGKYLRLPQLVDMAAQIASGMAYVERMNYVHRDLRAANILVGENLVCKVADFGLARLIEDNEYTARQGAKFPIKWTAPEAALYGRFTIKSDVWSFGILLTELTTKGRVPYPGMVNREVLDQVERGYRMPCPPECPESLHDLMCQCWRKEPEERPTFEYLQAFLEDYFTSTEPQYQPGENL
smiles,measurement,setting,value
O=C(NC1CCCC1)C(c1ccc(F)cc1)N(C(=O)CCl)C1CC1 (stereo not drawn) [DC-Srci-6668],IC50,[1],2.39 ± 0.164 µM
same,IC50,[2],3.88 ± 0.586 µM
same,positive Tm shift of c-Src,[3]; concentration ratio 1:5,1.50 °C
same,positive Tm shift of c-Src,[3]; concentration ratio 1:10,2.56 °C
same,positive Tm shift of c-Src,[3]; concentration ratio 1:20,3.30 °C
same,increase of MW of c-Src after compound treatment,[4],316.64 Da
